According to patent publication US20010056101A1 (priority 1998, published 2001):
Like-named read-outs stand apart in the source and are kept apart here.

Key:
[1] = target: T1, hO44 Receptor (Homo sapiens, UniProt P21917); details: for Ki / Intrinsic Activity / Ratio Low/High: hO44 Receptor; for Ratio Low/High: ratio of affinity at low-affinity agonist state to high affinity agonist state
T1 sequence (P21917 1-419): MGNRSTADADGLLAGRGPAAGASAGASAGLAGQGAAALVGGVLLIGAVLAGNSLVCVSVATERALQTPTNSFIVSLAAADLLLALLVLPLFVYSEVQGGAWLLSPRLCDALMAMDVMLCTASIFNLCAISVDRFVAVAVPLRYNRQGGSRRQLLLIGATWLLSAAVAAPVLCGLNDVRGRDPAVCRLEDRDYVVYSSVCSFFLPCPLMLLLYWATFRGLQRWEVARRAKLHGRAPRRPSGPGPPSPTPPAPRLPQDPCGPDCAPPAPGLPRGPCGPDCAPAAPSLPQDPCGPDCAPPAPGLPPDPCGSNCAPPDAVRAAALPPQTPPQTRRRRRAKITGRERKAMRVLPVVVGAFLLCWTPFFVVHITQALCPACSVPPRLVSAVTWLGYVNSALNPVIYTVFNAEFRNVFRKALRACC

[2] = tested on: hO3 Receptor (Homo sapiens); details: for Intrinsic Activity: calculated from the Low/High ratio; for Ratio Low/High: ratio of affinity at low-affinity agonist state to high affinity agonist state; for Ki: read-out: Ki (nM) ± S.D
[3] = target: T2, hD44 (Homo sapiens, UniProt P21917); test: biochemical
T2 sequence (P21917 1-419): T1 sequence (P21917 1-419)

[4] = tested on: schizophrenia; details: cited from earlier work
[5] = target: T3, hD47 (Homo sapiens, UniProt P21917)
T3 sequence (P21917 1-419): T1 sequence (P21917 1-419)

[6] = target: D2 receptor (Homo sapiens, UniProt P14416); details: for Emax: CHO
[7] = tested on: schizophrenia; test: Clinical antipsychotic efficacy, efficacy tolerance and side effects of dopamine agonists in schizophrenia; assay type: in vivo, human
[8] = tested on: hD3 (Homo sapiens); test: Affinity and intrinsic activity, Table 4; assay type: binding
[9] = tested on: L-DOPA-induced dyskinesia in Parkinson's disease; details: cited from earlier work
[10] = tested on: actively psychotic schizophrenic persons; test: Clinical test of (−)-3PPP plus haloperidol in actively psychotic schizophrenic persons, BPRS; assay type: in vivo, human; details: for Change in Total BPRS Score, mean: each arm with haloperidol 1 mg bid
From the text: This combination was designed to produce a lower IA (-)-3PPP, and thereby prolonging its antipsychotic activity. […] This dose of haloperidol may have delivered a measurable antipsychotic effect. […] (Table 5).

[11] = target: T4, hD42 (Homo sapiens, UniProt P21917, DEL265-296); test: biochemical
T4 sequence (P21917 with tags, fused parts or gaps DEL265-296): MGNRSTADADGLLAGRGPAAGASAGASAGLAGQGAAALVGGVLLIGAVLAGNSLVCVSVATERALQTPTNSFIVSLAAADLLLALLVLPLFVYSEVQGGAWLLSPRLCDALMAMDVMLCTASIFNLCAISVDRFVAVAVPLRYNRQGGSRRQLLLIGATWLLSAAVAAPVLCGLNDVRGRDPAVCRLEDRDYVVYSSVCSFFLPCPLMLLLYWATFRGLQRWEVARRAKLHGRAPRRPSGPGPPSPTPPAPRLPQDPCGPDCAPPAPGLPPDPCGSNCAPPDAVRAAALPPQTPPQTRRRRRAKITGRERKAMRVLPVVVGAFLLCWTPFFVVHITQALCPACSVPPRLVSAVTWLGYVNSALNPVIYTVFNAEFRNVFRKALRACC

[12] = tested on: tardive dyskinesia; details: clinical pharmacology, in words; cited from earlier work
[13] = tested on: schizophrenia; details: grade symbols, key not given; cited from earlier work
[14] = target: hD21 Receptor (Homo sapiens, UniProt P14416); test: Affinity and intrinsic activity of partial dopamine agonists, Table 3
[15] = calculated from the Low/High ratio

hD21 Receptor, sequence (P14416 whole entry): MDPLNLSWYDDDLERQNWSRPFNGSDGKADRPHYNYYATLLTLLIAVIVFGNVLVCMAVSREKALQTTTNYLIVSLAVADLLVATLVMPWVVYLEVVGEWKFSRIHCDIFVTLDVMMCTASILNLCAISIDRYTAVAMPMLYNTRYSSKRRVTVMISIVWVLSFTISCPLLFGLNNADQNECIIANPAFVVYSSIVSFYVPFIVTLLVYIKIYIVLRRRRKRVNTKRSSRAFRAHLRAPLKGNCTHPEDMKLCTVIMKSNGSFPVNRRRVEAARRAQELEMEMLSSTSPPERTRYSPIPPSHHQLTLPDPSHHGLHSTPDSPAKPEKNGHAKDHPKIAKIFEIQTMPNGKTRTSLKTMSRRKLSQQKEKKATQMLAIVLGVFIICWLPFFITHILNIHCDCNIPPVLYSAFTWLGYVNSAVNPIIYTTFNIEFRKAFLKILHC
D2 receptor, sequence (P14416 whole entry): as above
hO3 Receptor (Homo sapiens), sequence (P14416 whole entry): as above
hD3 (Homo sapiens), sequence (P14416 whole entry): as above

Which results are given for CCCN1CCCC(c2cccc(O)c2)C1 (single isomer, unassigned; (+)) [(+)-3-PPP]?
Ki ([1]; Ki (nM) ± S.D.): 12 ± 6.5 nM; Intrinsic Activity [1, 15]: 96%; Intrinsic Activity [2]: 81%

What does the source list for CCCN(CCc1cccs1)C1CCc2c(O)cccc2C1 (single isomer, unassigned; (+)) [(+)-N-0437]?
Intrinsic Activity [1, 15]: 72%; Ratio Low/High [1]: 40; Ki ([1]; read-out: Ki (nM) ± S.D.): 7.7 ± 3.4 nM; Intrinsic Activity [2]: 48%; Ratio Low/High [2]: 10; Ki [2]: 4.8 ± 2.3 nM

Which results are given for CCCN1CCCC(c2cccc(O)c2)C1 (single isomer, unassigned; (-)) [(−)-3-PPP, (−)3-(3-hydroxyphenyl)-N-n-propylpiperidine]?
Ki [3]: 13.2 nM; Emax ([3]; read-out: Intrinsic Activity %): 97%; Acute motor side effects ([4]; clinical application in schizophrenia): not accompanied by any acute motor side effect; Duration of antipsychotic action ([4]; continuous dosing, agonist alone): approximately one week; Intrinsic Activity % [5]: 98%; Ki ([5]; high affinity agonist state, [3H]-agonist ligand): 14.3 nM; Emax ([6]; read-out: Intrinsic activity (IA), Example 2): 40%; Emax ([6]; read-out: Intrinsic activity, tested without haloperidol, FIG. 1): 36%; Change of intrinsic activity with increasing concentrations of haloperidol ([6]; varying concentrations of haloperidol, FIG. 1): linear reduction in the intrinsic activity; Duration of efficacy ([7]; antipsychotic efficacy before tolerance): up to 7 days; Ki ([1]; Ki (nM) ± S.D.): 12.2 ± 3.1 nM; Emax ([1]; read-out: Intrinsic Activity, hO44 Receptor, calculated from the Low/High ratio): 83%; Emax [8]: 46%; Intrinsic Activity [2]: 46%; Effect on L-DOPA-induced dyskinesia [9]: improves L-DOPA-induced dyskinesia in Parkinson's disease; Antipsychotic effect over the trial ([10]; (−)-3PPP 300 mg bid plus haloperidol 1 mg bid, two weeks): extended longer for the entire two week period of the trial without evidence of tolerance; Change in Total BPRS Score, mean ([10]; Day 3): −1.4; Change in Total BPRS Score, mean ([10]; Day 7): −3.4; Change in Total BPRS Score, mean ([10]; Day 11): −3.3; Change in Total BPRS Score, mean ([10]; Day 14): −4.6; Ki [11]: 30.9 nM; Emax ([11]; read-out: Intrinsic Activity %): 73%

Which “Intrinsic Activity” value [1, 15] does the source give for CN1CCc2cccc3c2[C@@H]1Cc1ccc(O)c(O)c1-3 [(+)-Apo] here?
Its value is 55%.

With CCCN1CCc2cccc3c2[C@@H]1Cc1ccc(O)c(O)c1-3 [(+)-NPA] as the molecule, how does the “Intrinsic Activity” value [1, 15] read?
The value was 58%.

What about the Ki ([1]; read-out: Ki (nM) ± S.D.) of the same molecule?
The Ki was 2.3 ± 2 nM.

And the “Intrinsic Activity” value [2]?
The value was 61%.

Which “Intrinsic Activity” value [1, 15] does the source give for CN1CCc2cccc3c2[C@H]1Cc1ccc(O)c(O)c1-3 [(−)-Apo] here?
The value was 80%.

What does the source list for CCCN(CCc1cccs1)[C@H]1CCc2c(O)cccc2C1 [(−)-N-0437]?
Intrinsic Activity [1, 15]: 88%; Ratio Low/High [1]: 106; Ki ([1]; read-out: Ki (nM) ± S.D.): 1.1 ± 0.7 nM; Intrinsic Activity [2]: 94%; Ratio Low/High [2]: 145; Ki [2]: 0.08 ± 0.04 nM

For CCCN1CCc2cccc3c2[C@H]1Cc1ccc(O)c(O)c1-3 [(−)-NPA], which “Intrinsic Activity” value [1, 15] is on record?
The value was 57%.

What about the Ki ([1]; read-out: Ki (nM) ± S.D.) of the same molecule?
Its Ki is 0.6 ± 0.2 nM.

And the “Intrinsic Activity” value [2]?
Its value is 100%.

With CN1CCc2cccc3c2[C@H]1Cc1ccc(O)c(O)c1-3 [Apomorphine, apomorphine] as the molecule, how does the “Effect on tardive dyskinesia” value [12] read?
Its value is “paradoxically improves tardive dyskinesia, both significantly and substantially”.

With CN1C[C@H](CSc2ccccn2)C=C2c3cccc4[nH]cc(c34)C[C@H]21 [CF25-397] as the molecule, how does the Antipsychotic [13] read?
Its Antipsychotic is 0.

And the “Effect on tardive dyskinesia” value [12]?
The value was “modestly improved dyskinetic symptoms in TD”.

For CN1C[C@H](CN2CC(=O)NC(=O)C2)C=C2c3cccc4[nH]cc(c34)C[C@H]21 [FCE-23884], which “Intrinsic Activity” value [14] is on record?
Its value is 37.0%.

What about the Ki ([14]; read-out: Ki (HiAg State), high affinity agonist state) of the same molecule?
The Ki was 0.4 nM.

And the Ki ([14]; read-out: Ki (LowAg State), low affinity agonist state)?
Its Ki is 2.17 nM.

With O=C(CCCN1CCC(O)(c2ccc(Cl)cc2)CC1)c1ccc(F)cc1 [Haloperidol, haloperidol] as the molecule, how does the “Change in Total BPRS Score, mean” value ([10]; Day 3) read?
Its value is −1.0.

And the “Change in Total BPRS Score, mean” value ([10]; Day 7)?
The value was −0.2.

And the “Change in Total BPRS Score, mean” value ([10]; Day 11)?
The value was −0.1.

And the “Change in Total BPRS Score, mean” value ([10]; Day 14)?
Its value is −1.1.

Which “Efficacy tolerance observed after” value ([7]; antipsychotic efficacy tolerance) does the source give for CCCN1CCc2cccc3c2[C@H]1Cc1ccc(O)c(O)c1-3 [NPA, n-propylnorapomorphine] here?
The value was 24 h.

For c1cnc(N2CCN(Cc3ccc4c(c3)OCO4)CC2)nc1 [Piribedil (S584), piribedil], which Antipsychotic [13] is on record?
Its Antipsychotic is 0.

And the “Effect on tardive dyskinesia” value [12]?
Its value is “modestly improved dyskinetic symptoms in TD”.
